The values that follow come from patent US5693668A, “Acetylcholinesterase inhibitors” (priority 1989, dated 1997).

Read-outs that look alike come from different tables or passages of the source.

The format of the data set is in vitro ADME, hairless mouse (Outbred Nude mouse). The note with it: for skin permeation rate: 50% w/w drug loading. The protocol: An in vitro excised hairless mouse skin/modified Franz Diffusion Cell model was used to evaluate skin permeability of neat MDL 73,745, the title compound of Example 1, and permeation profile of MDL 73,745 from various prototype transdermal delivery systems. Prototype transdermal delivery systems containing MDL 73,745 were prepared in various acrylic, silastic, ethylene vinyl acetate copolymer, and rubber based pressure sensitive adhesives and evaluated in the in vitro skin permeation cell model.
In vitro skin permeation model: For this study an in vitro finite-dose glass diffusion cell (modified Franz Diffusion Cell)/freshly excised hairless mouse skin model was used. The diffusion consists of two parts: (i) a receptor compartment which is an upright reservoir jacketed by a glass chamber on the outside. Experiments were conducted at 37° C. by circulating thermostatically controlled water at 37° C. in this jacket and (ii) donor cap, which is clamped together with the receptor compartment with a metal clamp. A piece of skin/(transdermal formulation) is sandwiched between the donor and the receptor compartments and clamped together. Sampling from the receptor compartment is taken at predetermined time intervals through the sampling port.
Hairless mouse: Outbred Nude mouse {CRL NU/NU (CD1) BR, 6-8 weeks old, male} from Charles River, Mass.
Excised skin: Immediately following sacrifice by CO2 gas, a portion (3.5×3.5 cm) of the full-thickness abdominal skin was carefully excised from the hairless mouse. The dermal side of the skin was carefully cleaned of any adhering subcutaneous tissue and/or blood vessels. Extreme care was taken not to scratch or damage the stratum corneum. Before mounting onto the diffusion cell, each piece of skin was carefully inspected to insure that the skin was not damaged.
Dermal elution media: A 5% solution of polyethylene glycol 20 Oleyl ether (Trycol®, Emery) in 0.9% sodium chloride was used as the receptor medium for the modified Franz Diffusion Cells. […] Temperature of the dermal elution media was maintained at 37° C. using a thermostated constant temperature circulating water bath.
Skin permeation profile from neat MDL 73,745 and from Prototype formulations: Full-thickness skin, prepared freshly as outlined above, was mounted in a modified Franz Diffusion Cell with the stratum corneum side facing upward. To study the permeation profile of neat MDL 73,745, 50 μl of MDL 73,745 was uniformly applied onto the stratum corneum. The donor cap was placed over the skin and the whole assembly was then securely clamped together. The donor cap was covered with a piece of aluminum foil to reduce the volatilization of MDL 73,745. To evaluate the skin permeation profile of MDL 73,745 from a prototype transdermal formulation, a unit of prototype transdermal system (about 4.9 cm^2 circular) containing MDL 73,745 was placed onto the skin with the drug releasing side in intimate contact with the stratum corneum (slight pressure was applied to insure good contact). The donor cap was placed over the skin and the whole assembly was then securely clamped together.
Dermal elution medium (5% w/w Trycol® in normal saline) was then introduced into the receptor compartment through the sampling port. At predetermined time intervals, the entire volume of the receptor solution was withdrawn and immediately replaced with the same volume of fresh, drug free dermal elution medium (5% w/w Trycol® in normal saline), maintained at 37° C. The concentration of MDL 73,745 was determined by a sensitive HPLC method described under Analytical Method section below.
Analytical Method: An automated high performance liquid chromatograph equipped with a gradient pump (Waters Model 600E), autoinjector/sampler (Waters, Model 715 WISP), and a variable wavelength UV detector (Waters, Model 490) was used. The autoinjector/sampler was maintained at 2° C. to reduce possible evaporation/degradation of MDL 73,745 in the sample. […]

Take `C[Si](C)(C)c1cccc(C(=O)C(F)(F)F)c1` [MDL 73,745, 2,2,2-Trifluoro-1-(3-trimethylsilylphenyl) ethanone]: the “rate of transdermal delivery” value came to 13.01 μg/cm^2 /hr (3M acrylic adhesive #9871, 50% w/w drug loading); 21.04 μg/cm^2 /hr (3M acrylic adhesive #9871, 60% w/w drug loading); 12.92 μg/cm^2 /hr (DuroTak 72-9718 rubber based PSA, 20% w/w drug loading); 33.86 μg/cm^2 /hr (Eva-Tak 72-9660 prototype containing 50% drug); 20.59 μg/cm^2 /hr (Eva-Tak 72-9660 prototype containing 60% drug); 19.18 μg/cm^2 /hr (Nacor 38-4515 prototype containing 50% w/w drug). The “rate of transdermal delivery” value (neat MDL 73,745, 50 μl on stratum corneum) was 208.21 μg/cm^2 /hr. Further, the transdermal delivery profile entry is “constant, zero-order profile” (3M acrylic adhesive #9871 prototypes) and “controlled, zero-order fashion” (Eva-Tak 72-9660 prototypes, throughout duration of patch application). Moreover, the skin permeation rate (prototype in Gelva 737) came out at 12.95 μg/cm^2 /hr and the skin permeation rate (prototype in Gelva 788) is recorded as 8.63 μg/cm^2 /hr. The skin permeation profile entry (DuroTak 72-9718 rubber based PSA prototypes) is reported as “constant, zero-order profile”. Also, the “transport profile through skin” value (neat MDL 73,745) was “controlled zero order fashion”. Also, the “period of controlled, zero-order transdermal delivery” value (prototypes in various acrylic PSA) is reported as “at least 24 hours”.
